SMILES strings stand for the structures. Active and inactive are the calls of the source.

In assay [1] the target is T1, DNA dC->dU-editing enzyme APOBEC-3G (Homo sapiens, UniProt Q9HC16). The assay is described as follows: inhibition of APOBEC3G ssDNA deamination – biochemical, fluorescence, single-stranded DNA substrate, SAR follow-up (AID 602136). As to conditions: read-out: IC50_Mean. Format: functional.
Assay [2] has as its target T2, DNA dC->dU-editing enzyme APOBEC-3A (Homo sapiens, UniProt P31941). The experiment in a line: SAR analysis of small molecule inhibitors of APOBEC3A DNA Deaminase via a fluorescence-based single-stranded DNA deaminase assay. The format is functional. As to conditions: read-out: IC50_Mean.
The target of assay [3] is T2, DNA dC->dU-editing enzyme APOBEC-3A. The experiment in a line: SAR analysis of small molecule inhibitors of APOBEC3A DNA Deaminase via a fluorescence-based single-stranded DNA deaminase assay - Set 2. Format: functional. The settings on record: read-out: IC50_Mean.
The target in assay [4] is T1, DNA dC->dU-editing enzyme APOBEC-3G. Format: functional.
Assay [5] has the same target. The experiment in a line: SAR analysis of small molecule inhibitors of APOBEC3G DNA Deaminase via a fluorescence-based single-stranded DNA deaminase assay - Set 2. The settings on record: read-out: IC50_Mean. Format: functional.
Assay [6] addresses T2, DNA dC->dU-editing enzyme APOBEC-3A. The assay is described as follows: Dose Response confirmation of small molecule APOBEC3A DNA Deaminase Inhibitors via a fluorescence-based single-stranded DNA deaminase assay. [Related pubchem assays (depositor defined):AID493011, AID493024]. Format: functional.
Assay [7] is described as follows: bead-based luminescence quenchers, dual-tagged ARNT – biochemical, AlphaScreen, cherry-pick, artefact control for ARNT-TACC3 interaction inhibitor project, dose response (AID 651705).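 Note: AlphaScreen bead proximity signal that flags compounds interfering with the detection technology; potency reflects signal decrease which marks the compound as an assay artifact.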 Format: functional.
A further assay concerns H9c2. The experiment in a line: cells. The format is functional, cell-based. As to conditions: Rattus norvegicus, H9c2, Myocardium.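 Note: confirmatory concentration-response retest of ultra-high-throughput screening hits for modulation of myocardial damage; cell death induced by hydrogen peroxide oxidative stress; compound pretreatment for 60 min then peroxide exposure for 2 h; potency is for protecting the cells against peroxide damage rather than for killing them.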
Assay [8] is described as follows: inhibition of ARNT PAS-B/TACC3 complex formation – biochemical, AlphaScreen, cherry-picked samples, confirmation (AID 651703).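 Note: His-tagged ARNT PAS-B domain paired with GST-TACC3 E629A dimer coactivator fragment; potency of inhibitors that break up the complex and lower AlphaScreen signal.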 The format is functional, Homo sapiens. A general note: Alpha assays give light when donor and acceptor beads are brought close together.
The next assay has as its target Melanocortin receptor 4 (Homo sapiens, UniProt P32245). The format is functional, cell-based.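 Note: Cell-based assay with luminescence read-out, confirmatory dose-response testing for agonist activity of biased ligands at MC4R; human U2OS cells with tagged receptor and beta-arrestin; potency of agonists that increase receptor coupling to beta-arrestin.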
Assay [9] addresses Serine/threonine-protein kinase pim-1 (Homo sapiens, UniProt P11309). Format: functional.
Assay [10] concerns the target T3, Interleukin-1 receptor-associated kinase 4 (Homo sapiens, UniProt Q9NWZ3).
T3 sequence (Q9NWZ3 whole entry): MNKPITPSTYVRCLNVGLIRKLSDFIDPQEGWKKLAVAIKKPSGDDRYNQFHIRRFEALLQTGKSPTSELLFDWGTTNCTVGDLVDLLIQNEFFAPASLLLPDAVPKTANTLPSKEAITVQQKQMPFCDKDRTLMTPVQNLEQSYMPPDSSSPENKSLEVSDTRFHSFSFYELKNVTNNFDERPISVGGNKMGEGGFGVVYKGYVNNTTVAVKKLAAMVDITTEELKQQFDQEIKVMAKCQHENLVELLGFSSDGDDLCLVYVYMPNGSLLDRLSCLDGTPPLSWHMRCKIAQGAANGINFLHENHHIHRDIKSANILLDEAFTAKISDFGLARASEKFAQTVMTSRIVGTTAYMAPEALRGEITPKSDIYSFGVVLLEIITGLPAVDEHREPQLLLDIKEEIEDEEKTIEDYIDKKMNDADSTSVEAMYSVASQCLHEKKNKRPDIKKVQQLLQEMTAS
The format is functional.

For assay [11], the target named is Homeodomain-interacting protein kinase 2 (Homo sapiens, UniProt Q9H2X6). The format is functional.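 Note: measured within a kinome-wide kinase profiling panel, HIPK2 being one panel member.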
Assay [12] concerns the target Mitogen-activated protein kinase kinase kinase kinase 4 (Homo sapiens, UniProt O95819). Format: functional.
Assay [13] concerns the target cAMP-dependent protein kinase catalytic subunit alpha (Homo sapiens, UniProt P17612). Format: functional.
Assay [14] deals with Dual specificity protein kinase CLK4 (Homo sapiens, UniProt Q9HAZ1). The format is functional.
For assay [15], the target named is Cell division cycle 7-related protein kinase (Homo sapiens, UniProt O00311). The format is functional.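 Note: value obtained from a kinome-wide kinase panel.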
Assay [16] deals with Glycogen synthase kinase-3 beta (Homo sapiens, UniProt P49841). Format: functional.
The target in assay [17] is Proto-oncogene tyrosine-protein kinase Src (Homo sapiens, UniProt P12931). Format: functional.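 Note: SRC entry within a kinome-wide kinase profiling panel.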
The target in assay [18] is High affinity nerve growth factor receptor (Homo sapiens, UniProt P04629). Format: functional.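 Note: NTRK1 tested as one member of a kinome-wide profiling panel.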
In assay [19] the target is Tyrosine-protein kinase Blk (Homo sapiens, UniProt P51451). Format: functional.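 Note: obtained as one member of a kinome-wide kinase assay panel.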
Assay [20] concerns the target Vascular endothelial growth factor receptor 3 (Homo sapiens, UniProt P35916). The format is functional.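 Note: value from a kinome-wide profiling panel, with FLT4 as the panel member.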
In assay [21] the target is Tyrosine-protein kinase Fyn (Homo sapiens, UniProt P06241). The format is functional.
The target in assay [22] is Macrophage colony-stimulating factor 1 receptor (Homo sapiens, UniProt P07333). Format: functional.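 Note: value comes from the Navigating the Kinome screening panel, CSF1R member.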
Assay [23] deals with Vascular endothelial growth factor receptor 1 (Homo sapiens, UniProt P17948). The format is functional.
Assay [24] addresses Tyrosine-protein kinase Lck (Homo sapiens, UniProt P06239). Format: functional.
In assay [25] the target is T4, Receptor-type tyrosine-protein kinase FLT3 (Homo sapiens, UniProt P36888).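 Note: FLT3 was tested as one member of a kinome-wide kinase panel.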
T4 sequence (P36888 whole entry): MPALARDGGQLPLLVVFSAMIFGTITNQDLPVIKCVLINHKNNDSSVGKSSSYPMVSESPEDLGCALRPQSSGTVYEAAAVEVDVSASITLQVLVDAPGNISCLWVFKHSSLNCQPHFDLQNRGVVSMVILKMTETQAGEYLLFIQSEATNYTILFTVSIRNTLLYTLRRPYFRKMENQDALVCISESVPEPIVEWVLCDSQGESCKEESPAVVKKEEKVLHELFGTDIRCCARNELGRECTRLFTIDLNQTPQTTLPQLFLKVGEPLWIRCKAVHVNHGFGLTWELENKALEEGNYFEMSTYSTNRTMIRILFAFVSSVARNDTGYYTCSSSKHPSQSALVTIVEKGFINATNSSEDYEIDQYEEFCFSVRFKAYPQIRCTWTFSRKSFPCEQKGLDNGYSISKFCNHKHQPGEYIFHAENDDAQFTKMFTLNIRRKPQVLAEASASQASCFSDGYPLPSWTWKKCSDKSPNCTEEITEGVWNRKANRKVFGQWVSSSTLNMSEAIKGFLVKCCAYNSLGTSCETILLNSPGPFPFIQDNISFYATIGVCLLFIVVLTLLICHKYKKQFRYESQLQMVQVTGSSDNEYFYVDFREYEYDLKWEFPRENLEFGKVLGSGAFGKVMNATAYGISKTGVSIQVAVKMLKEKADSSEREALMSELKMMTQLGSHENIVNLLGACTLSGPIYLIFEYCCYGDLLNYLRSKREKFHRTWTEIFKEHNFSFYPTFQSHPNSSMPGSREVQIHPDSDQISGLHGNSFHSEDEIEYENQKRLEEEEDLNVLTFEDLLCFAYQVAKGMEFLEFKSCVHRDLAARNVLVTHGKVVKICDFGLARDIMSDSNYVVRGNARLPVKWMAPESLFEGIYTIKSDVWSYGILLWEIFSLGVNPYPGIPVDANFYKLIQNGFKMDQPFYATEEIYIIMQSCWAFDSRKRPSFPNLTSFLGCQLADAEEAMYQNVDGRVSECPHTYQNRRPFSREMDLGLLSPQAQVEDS
Format: functional.

Assay [26] has as its target Tyrosine-protein kinase Lyn (Homo sapiens, UniProt P07948). The format is functional.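 Note: lyn as one member of a kinase panel.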
In assay [27] the target is Tyrosine-protein kinase ABL1 (Homo sapiens, UniProt P00519). The format is functional.
In assay [28] the target is Vascular endothelial growth factor receptor 2 (Homo sapiens, UniProt P35968). Format: functional.
The target in assay [29] is Mast/stem cell growth factor receptor Kit (Homo sapiens, UniProt P10721). The format is functional.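 Note: KIT entry within a kinase panel assay.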
In assay [30] the target is T5, ATP-dependent translocase ABCB1 (Homo sapiens, UniProt P08183). The experiment in a line: P-gp JC-1 efflux blockade concentration-response – Jurkat-DNR cells, flow cytometry, set 2, dose response (AID 504569).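 Note: potency of pump inhibitors that raise cellular JC-1 green fluorescence up to the nicardipine level.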 Format: functional. The settings on record: read-out: EC50_MICROM_. Background: Flow cytometry measures light scatter and fluorescence of single cells or particles in a stream.

Assay [31] has as its target T5, ATP-dependent translocase ABCB1. The assay is described as follows: inhibition of BCRP-mediated JC-1 efflux – Ig-MXP3 cells, flow cytometry, set 2, dose response (AID 504566).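 Note: flow cytometry median green fluorescence of retained JC-1 dye; potency of efflux pump inhibition measured as rising substrate retention.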 As to conditions: read-out: EC50_MICROM_. Format: functional.
The target in assay [32] is Aryl hydrocarbon receptor (Homo sapiens, UniProt P35869). The settings on record: Potency.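 Note: confirmatory quantitative high-throughput screen measuring activation of the AhR signaling pathway.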
The target in assay [33] is Mitochondrial peptide methionine sulfoxide reductase (Bos taurus, UniProt P54149). Format: functional.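 Note: absorbance read-out, biochemical high-throughput dose-response screen for MsrA inhibitors, confirmatory; recombinant bovine MsrA coupled to E. coli TrxB with NADPH and selenocystamine; potency is for inhibitors of MsrA activity on DMSO substrate.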
Chain of Mitochondrial peptide methionine sulfoxide reductase (P54149 whole entry): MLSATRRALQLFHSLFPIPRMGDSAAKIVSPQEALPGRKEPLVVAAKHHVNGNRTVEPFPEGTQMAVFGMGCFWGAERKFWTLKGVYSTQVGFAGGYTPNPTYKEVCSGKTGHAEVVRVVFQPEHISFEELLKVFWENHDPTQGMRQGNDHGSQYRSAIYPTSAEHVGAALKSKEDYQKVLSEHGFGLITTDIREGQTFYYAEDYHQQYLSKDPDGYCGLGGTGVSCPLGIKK

T1 sequence (Q9HC16 whole entry): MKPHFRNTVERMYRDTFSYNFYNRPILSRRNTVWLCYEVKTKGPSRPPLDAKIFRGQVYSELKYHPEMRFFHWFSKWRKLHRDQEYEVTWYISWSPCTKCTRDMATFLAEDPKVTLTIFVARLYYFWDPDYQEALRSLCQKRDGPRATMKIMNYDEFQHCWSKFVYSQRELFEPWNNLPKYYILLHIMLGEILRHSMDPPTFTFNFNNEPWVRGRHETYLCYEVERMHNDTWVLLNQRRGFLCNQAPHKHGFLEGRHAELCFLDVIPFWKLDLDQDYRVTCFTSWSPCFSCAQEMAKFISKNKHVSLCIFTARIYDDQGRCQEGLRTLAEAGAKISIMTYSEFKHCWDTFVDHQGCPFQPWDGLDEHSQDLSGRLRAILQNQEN
T2 sequence (P31941 whole entry): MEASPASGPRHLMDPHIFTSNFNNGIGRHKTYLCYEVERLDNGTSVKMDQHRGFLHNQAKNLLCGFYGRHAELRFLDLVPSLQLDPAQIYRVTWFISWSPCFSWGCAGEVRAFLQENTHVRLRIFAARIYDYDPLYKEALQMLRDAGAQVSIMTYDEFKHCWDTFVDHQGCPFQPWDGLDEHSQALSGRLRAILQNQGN
Chain of Vascular endothelial growth factor receptor 3 (P35916 whole entry): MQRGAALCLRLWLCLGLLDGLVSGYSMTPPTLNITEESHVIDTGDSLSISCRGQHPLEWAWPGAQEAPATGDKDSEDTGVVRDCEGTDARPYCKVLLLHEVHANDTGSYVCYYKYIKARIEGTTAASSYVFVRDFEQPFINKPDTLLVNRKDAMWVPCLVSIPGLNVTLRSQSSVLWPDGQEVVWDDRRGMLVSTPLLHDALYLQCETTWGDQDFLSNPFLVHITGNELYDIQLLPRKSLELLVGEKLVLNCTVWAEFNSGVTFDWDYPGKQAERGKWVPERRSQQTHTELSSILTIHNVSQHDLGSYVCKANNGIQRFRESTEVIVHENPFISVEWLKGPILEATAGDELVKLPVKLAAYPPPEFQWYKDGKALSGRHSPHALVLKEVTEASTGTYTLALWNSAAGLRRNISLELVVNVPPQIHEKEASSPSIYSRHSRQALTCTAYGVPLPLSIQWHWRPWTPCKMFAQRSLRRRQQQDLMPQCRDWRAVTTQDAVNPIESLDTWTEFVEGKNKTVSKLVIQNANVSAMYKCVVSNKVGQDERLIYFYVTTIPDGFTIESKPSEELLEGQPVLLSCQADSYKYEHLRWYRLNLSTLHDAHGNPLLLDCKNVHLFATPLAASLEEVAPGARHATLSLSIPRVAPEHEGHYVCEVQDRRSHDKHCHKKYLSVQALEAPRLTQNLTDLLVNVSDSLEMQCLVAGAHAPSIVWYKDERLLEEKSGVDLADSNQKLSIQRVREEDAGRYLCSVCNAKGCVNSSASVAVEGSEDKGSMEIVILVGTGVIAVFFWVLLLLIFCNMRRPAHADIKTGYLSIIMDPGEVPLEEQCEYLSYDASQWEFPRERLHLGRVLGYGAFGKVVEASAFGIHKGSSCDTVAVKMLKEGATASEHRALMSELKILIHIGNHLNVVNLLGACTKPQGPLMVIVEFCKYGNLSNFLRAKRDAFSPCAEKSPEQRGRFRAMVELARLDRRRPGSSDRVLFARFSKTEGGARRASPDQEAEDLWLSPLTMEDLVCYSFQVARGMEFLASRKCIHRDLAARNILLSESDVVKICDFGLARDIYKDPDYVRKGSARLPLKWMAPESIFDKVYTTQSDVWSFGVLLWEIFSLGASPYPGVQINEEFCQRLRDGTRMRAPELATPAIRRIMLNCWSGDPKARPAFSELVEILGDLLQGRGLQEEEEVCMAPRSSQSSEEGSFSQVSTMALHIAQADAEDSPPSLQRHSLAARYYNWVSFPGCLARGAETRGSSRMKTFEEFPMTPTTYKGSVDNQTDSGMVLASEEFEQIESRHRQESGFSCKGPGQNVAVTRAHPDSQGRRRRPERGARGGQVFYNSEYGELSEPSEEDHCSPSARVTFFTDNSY
Chain of Homeodomain-interacting protein kinase 2 (Q9H2X6 whole entry): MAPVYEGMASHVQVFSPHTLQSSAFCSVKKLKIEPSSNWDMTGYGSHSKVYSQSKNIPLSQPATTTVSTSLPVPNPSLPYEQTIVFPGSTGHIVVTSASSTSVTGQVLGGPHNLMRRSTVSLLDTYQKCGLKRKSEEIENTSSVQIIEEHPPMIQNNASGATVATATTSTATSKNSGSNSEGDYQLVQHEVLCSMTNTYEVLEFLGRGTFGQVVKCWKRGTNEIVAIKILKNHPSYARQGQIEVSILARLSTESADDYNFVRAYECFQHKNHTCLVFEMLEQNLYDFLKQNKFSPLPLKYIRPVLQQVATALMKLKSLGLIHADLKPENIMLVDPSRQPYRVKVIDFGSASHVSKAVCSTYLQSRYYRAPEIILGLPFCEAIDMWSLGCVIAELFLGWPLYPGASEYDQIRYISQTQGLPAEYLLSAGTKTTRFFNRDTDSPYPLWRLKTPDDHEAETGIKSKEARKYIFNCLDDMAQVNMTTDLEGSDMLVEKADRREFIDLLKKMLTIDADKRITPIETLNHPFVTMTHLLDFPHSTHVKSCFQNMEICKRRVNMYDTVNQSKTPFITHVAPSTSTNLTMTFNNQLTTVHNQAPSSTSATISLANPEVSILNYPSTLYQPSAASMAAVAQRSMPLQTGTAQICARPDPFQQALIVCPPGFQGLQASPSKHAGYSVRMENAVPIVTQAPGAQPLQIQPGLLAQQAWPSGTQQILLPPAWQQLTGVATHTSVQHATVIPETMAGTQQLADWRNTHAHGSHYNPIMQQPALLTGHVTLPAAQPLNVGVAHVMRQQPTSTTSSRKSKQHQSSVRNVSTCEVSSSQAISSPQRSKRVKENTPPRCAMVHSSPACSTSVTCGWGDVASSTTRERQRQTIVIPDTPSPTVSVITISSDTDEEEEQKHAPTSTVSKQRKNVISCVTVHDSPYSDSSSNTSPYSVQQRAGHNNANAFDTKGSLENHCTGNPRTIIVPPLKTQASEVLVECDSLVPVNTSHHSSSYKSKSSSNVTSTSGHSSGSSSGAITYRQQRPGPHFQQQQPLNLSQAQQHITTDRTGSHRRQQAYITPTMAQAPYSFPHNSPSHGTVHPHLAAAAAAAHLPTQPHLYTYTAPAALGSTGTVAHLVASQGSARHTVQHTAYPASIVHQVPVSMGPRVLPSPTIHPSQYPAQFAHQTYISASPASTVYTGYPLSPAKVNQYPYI
Chain of Tyrosine-protein kinase Blk (P51451 whole entry): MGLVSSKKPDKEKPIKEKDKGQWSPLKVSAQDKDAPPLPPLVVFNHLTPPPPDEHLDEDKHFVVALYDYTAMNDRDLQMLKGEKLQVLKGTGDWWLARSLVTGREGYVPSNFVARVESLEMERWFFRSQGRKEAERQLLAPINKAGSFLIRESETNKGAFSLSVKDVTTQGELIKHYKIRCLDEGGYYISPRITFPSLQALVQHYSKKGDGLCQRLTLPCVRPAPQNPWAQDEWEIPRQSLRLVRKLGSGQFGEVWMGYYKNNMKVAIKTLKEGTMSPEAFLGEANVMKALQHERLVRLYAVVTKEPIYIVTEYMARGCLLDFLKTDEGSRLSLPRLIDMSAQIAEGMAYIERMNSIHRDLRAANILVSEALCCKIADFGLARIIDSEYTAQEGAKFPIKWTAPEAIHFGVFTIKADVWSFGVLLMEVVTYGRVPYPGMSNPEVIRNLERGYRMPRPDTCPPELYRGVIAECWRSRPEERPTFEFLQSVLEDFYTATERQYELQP
Chain of Tyrosine-protein kinase ABL1 (P00519 whole entry): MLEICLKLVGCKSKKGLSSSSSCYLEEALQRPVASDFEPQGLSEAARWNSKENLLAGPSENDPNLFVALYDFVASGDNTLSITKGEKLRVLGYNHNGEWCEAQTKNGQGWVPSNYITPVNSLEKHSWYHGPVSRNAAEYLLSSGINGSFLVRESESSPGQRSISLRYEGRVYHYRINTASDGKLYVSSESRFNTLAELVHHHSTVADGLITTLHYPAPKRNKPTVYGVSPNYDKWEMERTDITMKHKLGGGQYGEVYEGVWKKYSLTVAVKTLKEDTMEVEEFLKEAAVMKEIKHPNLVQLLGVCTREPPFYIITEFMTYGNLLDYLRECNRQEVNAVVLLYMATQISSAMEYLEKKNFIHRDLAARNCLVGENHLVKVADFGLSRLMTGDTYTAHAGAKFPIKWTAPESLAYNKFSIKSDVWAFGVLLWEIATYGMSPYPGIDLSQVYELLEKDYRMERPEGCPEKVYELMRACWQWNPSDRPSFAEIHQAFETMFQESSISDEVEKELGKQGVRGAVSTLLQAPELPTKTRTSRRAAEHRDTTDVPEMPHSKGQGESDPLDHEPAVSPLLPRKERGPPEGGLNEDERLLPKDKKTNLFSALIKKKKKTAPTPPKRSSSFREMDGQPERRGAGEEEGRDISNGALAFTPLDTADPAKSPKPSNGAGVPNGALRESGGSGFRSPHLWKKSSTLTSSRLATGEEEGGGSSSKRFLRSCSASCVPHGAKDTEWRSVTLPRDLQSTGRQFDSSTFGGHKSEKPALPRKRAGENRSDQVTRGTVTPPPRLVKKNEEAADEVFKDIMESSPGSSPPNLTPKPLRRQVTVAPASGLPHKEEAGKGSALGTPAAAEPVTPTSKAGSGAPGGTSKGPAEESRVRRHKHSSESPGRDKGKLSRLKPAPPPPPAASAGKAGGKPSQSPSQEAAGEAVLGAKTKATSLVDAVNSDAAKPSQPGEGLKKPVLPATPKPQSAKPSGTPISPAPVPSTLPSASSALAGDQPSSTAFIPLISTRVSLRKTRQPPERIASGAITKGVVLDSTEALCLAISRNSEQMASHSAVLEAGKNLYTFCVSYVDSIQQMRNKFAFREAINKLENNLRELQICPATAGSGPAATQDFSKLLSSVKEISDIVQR

As to `Cc1ccc[n+](CC(=O)Nc2cc(C(F)(F)F)ccc2N2CCOCC2)c1`, the IC50 was 9170 nM (active) in assay [1]; 20300 nM (inactive) in [2]; 26600 nM (inactive) in assay [3]; 7420 nM (active) in assay [4]; 601 nM (active) in assay [5]; 2880 nM (active) in [6].
As usually defined, the AC50 is the concentration giving half of the maximal activity seen. For `Brc1ccc(-c2nn3c(-c4ccccn4)nnc3s2)o1`, in [7], the half-maximal activity concentration (AC50) was 104000 nM (active). The IC50 in the assay with H9c2 is 14800 nM (active).
Regarding `N=C(NNS(=O)(=O)c1cc(C(F)(F)F)cc(C(F)(F)F)c1)c1ccccn1`, the concentration at half-maximal activity (AC50) in assay [8] was 104000 nM (active).
Consider `Cc1c(-c2ccnc3cc(C(=O)O)nn23)cnn1C`, for which the IC50 in assay [3] is 88900 nM (inactive); in assay [5], > 99000 nM (inactive).
On to `COc1ccccc1-c1cc(NC=O)c2ncc(-c3cccc(C(F)(F)F)c3)n2c1`, for which the EC50 on Melanocortin receptor 4 is > 89200 nM (inactive).
As usually defined, the Ki is a dissociation constant, usually derived from enzyme kinetics or from competition with a known ligand. For the compound `O=C(NCc1ccccc1)c1c[nH]n2c(=O)cc(-c3ccncc3)nc12`, the inhibitory constant (Ki) in [9] is 25.1 nM (active); in assay [10] it was 6310 nM (active); in assay [11], 20 nM (active); in assay [12], 100 nM (active); in assay [13], 3980 nM (active); in assay [14] it was 5.01 nM (active). In addition, the inhibition constant Ki in assay [15] was 5.01 nM (active); in assay [16] it was 2.51 nM (active).
`OCCNc1cc(-c2c[nH]c3ncccc23)cc(Cl)n1`: the Ki in [9] is 1580 nM (active); in assay [10], 1260 nM (active); in assay [11] it was 79.4 nM (active); in assay [12], 3.98 nM (active); in assay [13] it was 158 nM (active); in assay [15], 2.51 nM (active). Besides, in [16], the Ki is 200 nM (active).
The pKi is the Ki on a negative log10 scale, so that one unit is a factor of ten. A high value points to a small Ki. `Nc1n[nH]c2cccc(-c3ccc(NC(=O)Nc4cccc(Cl)c4)c(F)c3)c12`: the inhibition constant (Ki) in assay [17] is 501 nM (active); in assay [18], 1260 nM (active); in [19], 200 nM (active); in assay [20], 3.16 nM (active); in assay [21] it was 398 nM (active); in assay [22], 2 nM (active). For the same compound, the inhibition constant Ki in assay [23] was 0.631 nM (active); in assay [24], 100 nM (active); in [25] it was 1 nM (active); in assay [26], 158 nM (active); in [27], 501 nM (active); in assay [28], 3.16 nM (active). Moreover, the Ki in assay [29] was 0.794 nM (active). Further, the pKi in assay [18] is recorded as 5.9; in [19], 6.7; in assay [20], 8.5; in assay [21], 6.4; in assay [22] it was 8.7; in assay [23], 9.2. Moreover, the pKi is on record as 7 in assay [24]; 9 in assay [25]; 6.8 in [26]; 6.3 in assay [27]; 8.5 in [28]; 9.1 in [29].
Regarding `COc1ccc(-c2cc3nc(-c4ccccc4)cc(N4CCN(C(=O)c5ccsc5)CC4)n3n2)cc1`, the EC50 in [30] is 1020 nM (active); in assay [31], 770 nM (active).
Consider `O=C(O)c1cc2ccccc2cc1O`, for which the AC50 in assay [32] is 50100 nM (inconclusive).
As to `CCOC(=O)CC(C)(C)/C(C)=N/Nc1ccc([N+](=O)[O-])cc1[N+](=O)[O-]`, the IC50 in assay [33] is 155000 nM (inactive).

(Values after ChEMBL document CHEMBL1201862, “PubChem BioAssay data set” (2004).)
